Results from patent US20110009462A1, “STABLE, SYNERGISTIC MIXTURES” (LANXESS DEUTSCHLAND GMBH, priority 2007, published 2011).

How the values were obtained:
Assay type in all cases: cell-based
[1] = tested on: Pseudomonas fluorescens; experiment: MIC and synergism (Kull) against Pseudomonas fluorescens, Landy minimal medium pH 7
Protocol: (§1) The synergism was determined by the method described by Kull et al. (F. C. Kull, P. C. Eismann, H. D. Sylvestrowicz, R. L. Mayer, Applied Microbiology 9, 538 to 541, 1961). The following relationships apply:
(§2) [formula] • Qa=amount of substance A • Qb=amount of substance B • MIC(A)=concentration of substance A which prevents microbial growth • MIC(B)=concentration of substance B which prevents microbial growth • MIC(A+B)=concentration of substance A+B which prevents microbial growth • SI=synergistic index, where SI=1 means additive effect • SI>1 means antagonism • SI<1 means synergism
(§3) Various concentrations of GDA and MIT and mixtures of the two abovementioned active substances were tested against the bacterium Pseudomonas fluorescens. The incubation is performed in Landy minimal medium at pH 7 and 26° C. The growth of Pseudomonas fluorescens was compared at various active substance concentrations with the growth without active substance. The lowest concentration at which growth was no longer detected is stated as the minimum inhibitory concentration (MIC).

[2] = tested on: Pseudomonas fluorescens; experiment: MIC and synergism (Kull) against Pseudomonas fluorescens, Landy minimal medium pH 9
Protocol: as §1, §2
as §3, with “at pH 9 and 26°” for “at pH 7 and 26°”, “compared at the various active” for “compared at various active”

[3] = tested on: Corynebacterium; experiment: MIC and synergism (Kull) against Corynebacterium, Landy minimal medium pH 9
Protocol: as §1, §2
(§4) Various concentrations of GDA and MIT and mixtures of the two abovementioned active substances were tested against the bacterium Corynebacterium. The incubation is performed in Landy minimal medium at pH 9 and 26° C. The growth of Corynebacterium was compared at the various active substance concentrations with the growth without active substance. The lowest concentration at which growth was no longer detected is stated as the minimum inhibitory concentration (MIC).

[4] = tested on: Rhodotorula rubra; experiment: MIC and synergism (Kull) against yeast Rhodotorula rubra, malt extract liquid medium
Protocol: as §1, §2
as §4, with “yeast Rhodotorula rubra.” for “bacterium Corynebacterium.”, “malt extract liquid” for “Landy minimal”, “at” for “at pH 9 and”, “Rhodotorula rubra” for “Corynebacterium”

[5] = Landy minimal medium, pH 9, 26° C.

SMILES | MIC ([1]; pH 7) | MIC ([2]; pH 9) | MIC ([3]; pH 9) | MIC ([4]; Rhodotorula) | MIC ([1]; Landy minimal medium, pH 7, 26° C.) | MIC [2, 5] | MIC [3, 5] | MIC ([4]; Rhodotorula rubra, malt extract liquid medium, 26° C.)
Cn1sccc1=O [MIT, 2-methyl-2H-isothiazol-3-one] | 5 µg/mL | 20 µg/mL | 5 µg/mL | 50 µg/mL | – | – | – | –
O=CCCCC=O [GDA, glutardialdehyde] | – | – | – | – | 20 ppm | 50 ppm | 10 ppm | 100 ppm
